Tests used:
Zone of skin [1] = experiment: Upregulation of SIRT-1 gene expression in human epidermal full thickness skin cultures at 1 % after 24 hrs by real time PCR analysis relative to control; format: functional
NHDF = experiment: Upregulation of SIRT-1 gene expression in NHDF by real time RT-PCR analysis relative to control; format: functional, Homo sapiens
Zone of skin [2] = experiment: Upregulation of LAMB 1 gene expression in human epidermal full thickness skin cultures at 1 % after 24 hrs by qPCR analysis relative to control; format: functional
Zone of skin [3] = experiment: Upregulation of PCNA gene expression in human epidermal full thickness skin cultures at 1 % after 24 hrs by qPCR analysis relative to control; format: functional
Zone of skin [4] = experiment: Upregulation of SOD 2 gene expression in human epidermal full thickness skin cultures at 1 % after 24 hrs by qPCR analysis relative to control; format: functional
Zone of skin [5] = experiment: Upregulation of catalase gene expression in human epidermal full thickness skin cultures at 1 % after 24 hrs by qPCR analysis relative to control; format: functional
Zone of skin [6] = experiment: Toxicity in human epidermal full thickness skin cultures assessed as intact and healthy keratinocytes at 1 % after 24 hrs by hematoxylin/eosin staining based assay
Zone of skin [7] = experiment: Upregulation of elastin gene expression in human epidermal full thickness skin cultures at 1 % after 24 hrs by real time PCR analysis relative to control; format: functional
Zone of skin [8] = experiment: Upregulation of TIMP 1 gene expression in human epidermal full thickness skin cultures at 1 % after 24 hrs by real time PCR analysis relative to control; format: functional
Zone of skin [9] = experiment: Upregulation of procollagen type III gene expression in human epidermal full thickness skin cultures at 1 % after 24 hrs by real time PCR analysis relative to control; format: functional
Zone of skin [10] = experiment: Upregulation of TIMP 2 gene expression in human epidermal full thickness skin cultures at 1 % after 24 hrs by real time PCR analysis relative to control; format: functional
Zone of skin [11] = experiment: Upregulation of MT1H gene expression in human epidermal full thickness skin cultures at 1 % after 24 hrs by qPCR analysis relative to control; format: functional
Zone of skin [12] = experiment: Upregulation of NGF gene expression in human epidermal full thickness skin cultures at 1 % after 24 hrs by qPCR analysis relative to control; format: functional
Zone of skin [13] = experiment: Upregulation of type IV collagen alpha 1 gene expression in human epidermal full thickness skin cultures at 1 % after 24 hrs by real time PCR analysis relative to control; format: functional
Zone of skin [14] = experiment: Upregulation of IGF 1 gene expression in human epidermal full thickness skin cultures at 1 % after 24 hrs by qPCR analysis relative to control; format: functional
Zone of skin [15] = experiment: Upregulation of SOD 1 gene expression in human epidermal full thickness skin cultures at 1 % after 24 hrs by qPCR analysis relative to control; format: functional
Zone of skin [16] = experiment: Toxicity in human epidermal full thickness skin cultures assessed as intact and healthy stratum corneum at 1 % after 24 hrs by hematoxylin/eosin staining based assay
Zone of skin [17] = experiment: Upregulation of HBEGF gene expression in human epidermal full thickness skin cultures at 1 % after 24 hrs by qPCR analysis relative to control; format: functional
Zone of skin [18] = experiment: Upregulation of type IV collagen alpha 2 gene expression in human epidermal full thickness skin cultures at 1 % after 24 hrs by real time PCR analysis relative to control; format: functional
Zone of skin [19] = experiment: Upregulation of MT2A gene expression in human epidermal full thickness skin cultures at 1 % after 24 hrs by qPCR analysis relative to control; format: functional
Zone of skin [20] = experiment: Upregulation of FBN 1 gene expression in human epidermal full thickness skin cultures at 1 % after 24 hrs by qPCR analysis relative to control; format: functional
Zone of skin [21] = experiment: Upregulation of LOX gene expression in human epidermal full thickness skin cultures at 1 % after 24 hrs by qPCR analysis relative to control; format: functional
Zone of skin [22] = experiment: Upregulation of TGF gene expression in human epidermal full thickness skin cultures at 1 % after 24 hrs by qPCR analysis relative to control; format: functional
Zone of skin [23] = experiment: Toxicity in human epidermal full thickness skin cultures assessed as intact and healthy fibroblasts at 1 % after 24 hrs by hematoxylin/eosin staining based assay
[24] = Lipophilicity, log P of the compound; details: octanol/water

CC(=O)Oc1ccc(/C=C/c2cc(O)cc(O)c2)cc1
Activity (Zone of skin [1]): 335%
fold change (FC) (NHDF): >3.3
Activity (Zone of skin [2]): 140%
Activity (Zone of skin [3]): 540%
Activity (Zone of skin [4]): 170%
Activity (Zone of skin [5]): 160%
Activity (Zone of skin [6]): Non-toxic
Activity (Zone of skin [7]): 280%
Activity (Zone of skin [8]): 250%
Activity (Zone of skin [9]): 220%
Activity (Zone of skin [10]): 130%
Activity (Zone of skin [11]): 6400%
Activity (Zone of skin [12]): 672%
Activity (Zone of skin [13]): 170%
Activity (Zone of skin [14]): 264%
Activity (Zone of skin [15]): 160%
Activity (Zone of skin [16]): Non-toxic
Activity (Zone of skin [17]): 190%
Activity (Zone of skin [18]): 180%
Activity (Zone of skin [19]): 340%
Activity (Zone of skin [20]): 130%
Activity (Zone of skin [21]): 190%
Activity (Zone of skin [22]): 200%
Activity (Zone of skin [23]): Non-toxic

Oc1ccc(/C=C/c2cc(O)cc(O)c2)cc1 [RESVERATROL]
fold change (FC) (Zone of skin [1]): 1.8
Activity (Zone of skin [7]): 180%
logP [24]: 3.1
